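Results reflect a 48-hour exposure of cells in 96-well plates to compound at five concentrations. GI50 is the concentration that inhibits growth by half.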 Active and inactive are the calls of the source. No stated cut-off is given here; in the data, active = GI50 up to about 1.1 µM and inactive = higher.
Columns and labels:
Assay in all cases: NCI anticancer screen, dose series, 48 h
[1] = system: CAKI-1
[2] = system: K562
[3] = system: SN12C
[4] = system: SF-539
[5] = system: HCT-15
[6] = system: SNB-75
[7] = system: HL-60
[8] = system: COLO 205
[9] = system: Malme-3M
[10] = system: SK-MEL-2
[11] = system: RXF 393
[12] = system: SF-295
[13] = system: NCI-H522
[14] = system: BT-549
[15] = system: LOX IMVI
[16] = system: NCI-H460
[17] = system: KM12
[18] = system: SW-620
[19] = system: TK-10
[20] = system: SK-OV-3
[21] = system: SR
[22] = system: PC-3
[23] = system: T47D
[24] = system: MDA-MB-231
[25] = system: CCRF-CEM
[26] = system: OVCAR-4
[27] = system: IGROV-1
[28] = system: UO-31
[29] = system: NCI-H23
[30] = system: MCF7
[31] = system: A498
[32] = system: NCI-H226
[33] = system: SF-268
[34] = system: ACHN
[35] = system: MOLT-4
[36] = system: RPMI-8226
[37] = system: NCI/ADR-RES
[38] = system: EKVX
[39] = system: U-251
[40] = system: SK-MEL-28
[41] = system: OVCAR-8
[42] = system: A549
[43] = system: HCT-116
[44] = system: UACC-62
[45] = system: HOP-92
[46] = system: MDA-N
[47] = system: MDA-MB-435
[48] = system: 786-0
[49] = system: UACC-257
[50] = system: Hs-578T
[51] = system: HT-29
[52] = system: DU-145
[53] = system: SNB-19
[54] = system: HOP-62
[55] = system: M14
[56] = system: OVCAR-5
[57] = system: OVCAR-3
[58] = system: SK-MEL-5

Measured: GI50

CCOC(=O)c1cc2c([nH]1)C(=O)CC1=C2CCN1Cc1ccccc1
inactive: [1] 3.46 µM | [2] 3.8 µM | [3] 18.2 µM | [4] 22.1 µM | [6] 23.3 µM | [7] 7.4 µM | [8] 16.8 µM | [9] 5.65 µM | [10] 20.5 µM | [11] 13.9 µM | [12] 18.5 µM | [13] 17.9 µM | [14] 18.1 µM | [15] 13.3 µM | [16] 18.4 µM | [17] 17.6 µM | [18] 5.36 µM | [19] 13.9 µM | [20] 19.4 µM | [21] 5.02 µM | [22] 20.5 µM | [23] 2.45 µM | [24] 13.2 µM | [25] 4.43 µM | [26] 13.6 µM | [27] 17.9 µM | [28] 15.3 µM | [29] 16.1 µM | [30] 13.3 µM | [31] 15.3 µM | [33] 21.3 µM | [34] 12.9 µM | [35] 4.06 µM | [36] 3.81 µM | [37] 20.7 µM | [38] 19.8 µM | [39] 12.5 µM | [40] 17.2 µM | [41] 23.1 µM | [42] 21.4 µM | [43] 13 µM | [44] 14.8 µM | [45] 14.3 µM | [46] 13.5 µM | [47] 13.2 µM | [48] 17.2 µM | [49] 17.4 µM | [50] 20.4 µM | [51] 16 µM | [52] 15.2 µM | [53] 17.5 µM
active: [32] 0.585 µM
8.53 µM: [5]

Oc1nc(S)nc(SCc2c(Cl)c(Cl)c(Cl)c(Cl)c2Cl)n1
inactive: [1] 30.6 µM | [2] 15.3 µM | [3] 49.5 µM | [4] 46.2 µM | [54] 38.7 µM | [6] > 100 µM | [7] 20.1 µM | [8] 18.2 µM | [55] 60.8 µM | [9] 27.5 µM | [10] 52.5 µM | [11] 16.9 µM | [12] > 100 µM | [13] 18.2 µM | [14] > 80.2 µM | [15] > 63.1 µM | [16] 58.2 µM | [17] 89.9 µM | [18] 32.4 µM | [19] > 80.2 µM | [20] > 96.4 µM | [22] > 67.9 µM | [23] 27.9 µM | [24] > 100 µM | [25] 15.8 µM | [26] 21.9 µM | [27] 69 µM | [28] 30 µM | [29] 55.7 µM | [30] 37.2 µM | [31] > 59.4 µM | [32] > 69.8 µM | [56] 98.2 µM | [33] 40 µM | [34] 77.1 µM | [36] 7.18 µM | [37] > 58.5 µM | [38] 40.9 µM | [39] > 100 µM | [40] 31.1 µM | [41] 62.7 µM | [42] > 96.4 µM | [43] 39.8 µM | [44] > 92.7 µM | [45] 77.8 µM | [57] 15.3 µM | [46] 47.4 µM | [47] 36.9 µM | [58] > 84.1 µM | [48] 42.7 µM | [49] > 88.3 µM | [50] > 59.2 µM | [51] 28.1 µM | [52] 45.9 µM | [53] > 100 µM
49 µM: [5]
active: [21] 0.184 µM | [35] 0.809 µM

From ChEMBL document CHEMBL1201862, “PubChem BioAssay data set” (2004)
